This is an account of results in US5741671A, “Isolation cloning and expression of transmembrane water channel aquaporin 1(AQP1)” (The Johns Hopkins University, priority 1995, dated 1998).

One assay relates to human RBC. The following applies: cited from earlier work.
Another assay concerns the target T1, AQP1 (Homo sapiens, UniProt P29972).
T1 construct: Human erythrocytes were obtained from blood-bank units stored up to 5 weeks; from tissue; host or cells: human erythrocytes (blood-bank units; small-scale preparations from freshly drawn whole blood)
T1 sequence (P29972 2-269 limits assumed): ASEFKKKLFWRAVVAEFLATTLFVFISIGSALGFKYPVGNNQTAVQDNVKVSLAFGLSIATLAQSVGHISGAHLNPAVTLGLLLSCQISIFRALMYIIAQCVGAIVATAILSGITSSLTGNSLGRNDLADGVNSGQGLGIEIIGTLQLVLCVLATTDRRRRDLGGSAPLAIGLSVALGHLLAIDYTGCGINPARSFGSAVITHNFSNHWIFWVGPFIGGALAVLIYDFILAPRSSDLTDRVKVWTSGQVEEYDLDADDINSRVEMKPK
Nature of the assay: Stopped-flow osmotic water permeability of AQP1 proteoliposomes. It is filed as biochemical. The conditions noted are these: CHIP28 proteoliposomes. From the text: Preparation AQP1-containing proteoliposomes. Crude Escherichia coli lipid was obtained from Avanti Polar Lipids, Inc., and neutral lipid was removed by acetone/ether wash (Ambudkar & Maloney, 1986, Methods. Enzymol. 125:558-563). The purified E. coli bulk phospholipid is composed of phosphalidylethanolamine (70%), phosphatidylglycerol (15%), and cardiolipin (15%) (Chen & Wilson, […], Proc. Natl. Acad. Sci. USA 83:2652-2656). E. coli bulk phospholipid was employed since it has previously been used for functional reconstitution of several transport proteins including the glucose transporter of RBCs (Maloney & Ambudkar, 1989, Arch. Biochem. Biophys. 269:1-10; Chen et al., 1986, Proc. Natl. Acad. Sci. USA 83:2652-2656).
Highly purified AQP1 protein was incorporated into proteoliposomes by detergent dilution; control liposomes were formed in an identical manner without AQP1 protein.
Purified AQP1 was stored overnight at 0° C. or frozen for several days at -80° C. prior to reconstitution. Reconstitution into proteoliposomes was carried out in a final volume of 1 ml containing 60-90 μg of purified AQP1 protein in chromatography buffer, 9 mg of bath-sonicated E. coli phospholipid, 1.25% (w/v) octyl glucoside, and 50 mM Tris-HCl (pH 7.5). The mixture was briefly blended on a vortex mixer and incubated for 20 minutes on ice. Proteoliposomes (or liposomes prepared without protein) were formed at room temperature by rapidly injecting the mixture into 25 ml of buffer A [50 mM MOPS, pH 7.5, 150 mM N-methyl-D-glucamine (NMDG) chloride also containing 10-15 mM carboxyfluorescein, 1 mM dithiothreitol, and 0.5 mM PMSF]. For the measurement of proton permeability, proteoliposomes and liposomes were loaded with buffer B (5 mM MOPS, pH 7.5, 150 mM KCl, 0.5 mM carboxyfluorescein, 1 mM dithiothreitol, and 0.5 mM PMSF). The suspension was incubated for 20 minutes at room temperature. Proteoliposomes or liposomes were collected by centrifugation for 1 hour at 123000×g in a Beckman Type 42.1 rotor at 4° C. The pellet was resuspended in 8 ml of buffer A or B and then centrifuged for 1 hour at 152000×g in a Beckman Type 50 Ti rotor. Proteoliposomes or liposomes were resuspended in 300 μl of buffer A or B and stored at 4° C. for 16-24 hours. Typically 50% (54±6%, n=5) of the AQP1 protein and 70% of the phospholipid were recovered in proteoliposomes. The lipid to protein ratio was in the range of 120:1 to 219:1. […] Protein and phospholipid were measured as described by Ambudkar & Maloney (J. Biol. Chem., 1986, 261:10079-10086).
(§1) Permeability measurements. Membrane permeability measurements (Pf) were measured by exposing AQP1 proteoliposomes or control liposomes to an osmotic gradient by rapid mixing with an equal volume of another solution containing buffer A plus sufficient sucrose to increase osmolality in the mixed solutions to a value 120% of that in the original solution. This was performed with a stopped-flow fluorometer (SF.17MV, Applied Photophysics, Leatherhead, U.K.) with a measured dead time of 0.7 ms. […] Extravesicular carboxyfluorescein fluorescence was completely quenched using anti-fluorescein antibody (Harris et al., 1990, Am. J. Physiol. 259:F366-F371). Within the range of osmolalities used in these experiments, the vesicles acted as perfect osmometers, and relative volume (absolute volume divided by initial volume) was linearly related to relative fluorescence (absolute fluorescence divided by initial fluorescence). […]

A short description of assay [1]: Stopped-flow osmotic water permeability of control liposomes. The following applies: mercurial reagent 1 mM. It is filed as biochemical. Here is the method: Purified AQP1 was stored overnight at 0° C. or frozen for several days at -80° C. prior to reconstitution. Reconstitution into proteoliposomes was carried out in a final volume of 1 ml containing 60-90 μg of purified AQP1 protein in chromatography buffer, 9 mg of bath-sonicated E. coli phospholipid, 1.25% (w/v) octyl glucoside, and 50 mM Tris-HCl (pH 7.5). The mixture was briefly blended on a vortex mixer and incubated for 20 minutes on ice. […] Protein and phospholipid were measured as described by Ambudkar & Maloney (J. Biol. Chem., 1986, 261:10079-10086).
as §1, with “259:F366-F371).” for “259:F366-F371). Within the range of osmolalities used in these experiments, the vesicles acted as perfect osmometers, and relative volume (absolute volume divided by initial volume) was linearly related to relative fluorescence (absolute fluorescence divided by initial fluorescence).”

The target in the next assay is T2, CHIP28 water channel (Homo sapiens, UniProt P29972).
T2 construct: Human erythrocytes were obtained from blood-bank units stored up to 5 weeks; from tissue; host or cells: human erythrocytes (blood-bank units; small-scale preparations from freshly drawn whole blood)
T2 sequence (P29972 2-269 limits assumed): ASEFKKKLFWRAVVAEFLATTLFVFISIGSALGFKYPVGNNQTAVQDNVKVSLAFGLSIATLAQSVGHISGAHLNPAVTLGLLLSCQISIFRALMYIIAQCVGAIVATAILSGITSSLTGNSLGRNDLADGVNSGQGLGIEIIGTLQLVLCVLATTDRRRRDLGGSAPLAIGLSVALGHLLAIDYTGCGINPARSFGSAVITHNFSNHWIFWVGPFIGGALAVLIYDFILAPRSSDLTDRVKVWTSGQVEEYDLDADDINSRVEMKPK
Nature of the assay: Urea permeability of CHIP28 proteoliposomes. It is filed as biochemical. The conditions noted are these: internal urea 374 mM, external urea 187 mM. The text has this: The general formula defining solute exit from a vesicle is
Jurea =d(urea)/dt=Purea (SA)ΔC (2)
where Jurea is urea flux, Purea is the permeability coefficient for urea, SA is the surface area of the vesicle, and ΔC is the difference in urea concentration between the inside and outside of the vesicle, which diminishes as the system reaches equilibrium. If
Using parameters from the single-exponential curve fit to the data and the relationship between relative volume and relative fluorescence, equation 4 was solved for Purea using MathCAD.
Exclusion of urea. To determine the selectivity of the CHIP28 water channel, CHIP28-containing liposomes were loaded with urea at a level similar to the measured Km for urea transport in RBCs and were abruptly mixed with solutions of identical osmolality containing half the urea concentration. Urea permeability was determined by monitoring the relative fluorescence of entrapped carboxyfluorescein during the urea efflux. Solutions inside and outside the vesicle were of equal osmolality but differed in the concentrations of permeant and impermeant solutes (Grossman et al., 1992, Am. J. Physiol., in press). Thus, internal urea concentration was 374 mM and external urea concentration was 187 mM with the remaining osmolality balanced by 187 mM sucrose. […]

As to `O=C(CCc1ccc(O)cc1)c1c(O)cc(O)cc1O` [Phloretin], in the assay on human RBC, the “effect on urea flux” value was “inhibits urea flux” and the “effect on water flux” value was “without altering water flux”.
In the case of `O=S(=O)([O-])c1cc[c]([Hg][Cl])cc1` [pCMBS, p-chloromercuribenzene sulfonate], the “Pf after mercurial treatment” value on AQP1 (1 mM pCMBS, 25 minutes at 37° C.) came to 0.009±0.005 cm/s. Further, on AQP1 (1 mM, 37° C.), the “extent of inhibition of Pf at 5 and 10 minutes” value was “partial”. Moreover, the “effect on the Pf of control liposomes” value in assay [1] is given as “Neither pCMBS nor HgCl2 had any effect”.

B1: AQP1: Mr 28,000 transmembrane water channel protein of human erythrocytes, 269 amino acids (protein)
chain: ASEFKKKLFWRAVVAEFLATTLFVFISIGSALGFKYPVGNNQTAVQDNVKVSLAFGLSIATLAQSVGHISGAHLNPAVTLGLLLSCQISIFRALMYIIAQCVGAIVATAILSGITSSLTGNSLGRNDLADGVNSGQGLGIEIIGTLQLVLCVLATTDRRRRDLGGSAPLAIGLSVALGHLLAIDYTGCGINPARSFGSAVITHNFSNHWIFWVGPFIGGALAVLIYDFILAPRSSDLTDRVKVWTSGQVEEYDLDADDINSRVEMKPK
On to B1, for which, in the assay with CHIP28 water channel, the “urea permeability versus control liposomes” value is on record as “did not augment urea permeability”.
